# Reference: US20260055096A1, “AZOLE PESTICIDAL COMPOUNDS” (BASF SE, priority 2022, published 2026)
# Experiments:
# Assay type in all cases: in vivo
# [1] = tested on: Diamond back moth (Plutella xylostella); assay: Example B.8: Action on diamond back moth (Plutella xylostella), egg and larval mortality on insect diet in microtiter plates; settings: for egg and larval mortality: comparative experiment vs prior art compounds; for mortality at 800 ppm: Plutella xylostella, 120 h, egg and larval mortality after 5 days, read-out: mortality in comparison with untreated controls
# Method: For evaluating control of diamond back moth (Plutella xylostella) the test unit consisted of 96-well-microtiter plates containing an insect diet and 15-25 P. xylostella eggs. The compounds or mixtures were formulated using a solution containing 75% water and 25% DMSO. Different concentrations of formulated compounds or mixtures were sprayed onto the insect diet at 5 μl, using a custom-built micro atomizer, at two replications. For experimental mixtures in these tests identical volumes of both mixing partners at the desired concentrations respectively, were mixed together. After application, microtiter plates were incubated at 28±1° C., 80±5% RH for 5 days. Egg and larval mortality was then visually assessed.
# [2] = tested on: Southern armyworm (Spodoptera eridania), 2nd instar larvae; assay: Example B.7: Action on southern armyworm (Spodoptera eridania), 2nd instar larvae on sprayed lima bean plants; settings: 96 h, 4 days after treatment, read-out: mortality in comparison with untreated controls
# Method: The active compounds were formulated by a Tecan liquid handler in 100% cyclohexanone as a 10,000-ppm solution supplied in tubes. The 10,000-ppm solution was serially diluted in 100% cyclohexanone to make interim solutions. These served as stock solutions for which final dilutions were made by the Tecan in 50% acetone:50% water (v/v) into 10 or 20 ml glass vials. A nonionic surfactant (Kinetic®) was included in the solution at a volume of 0.01% (v/v). The vials were then inserted into an automated electrostatic sprayer equipped with an atomizing nozzle for application to plants/insects.
# Lima bean plants (variety Sieva) were grown 2 plants to a pot and selected for treatment at the 1st true leaf stage. Test solutions were sprayed onto the foliage by an automated electrostatic plant sprayer equipped with an atomizing spray nozzle. The plants were dried in the sprayer fume hood and then removed from the sprayer. Each pot was placed into perforated plastic bags with a zip closure. About 10 to 11 armyworm larvae were placed into the bag and the bags zipped closed. Test plants were maintained in a growth room at about 25° C. and about 20-40% relative humidity for 4 days, avoiding direct exposure to fluorescent light (24-hour photoperiod) to prevent trapping of heat inside the bags. Mortality and reduced feeding were assessed 4 days after treatment, compared to untreated control plants.
# [3] = tested on: boll weevil (Anthonomus grandis); assay: Example B.3: Action on boll weevil (Anthonomus grandis), egg and larval mortality on insect diet; settings: 120 h, egg and larval mortality after 5 days, read-out: mortality in comparison with untreated controls
# Method: For evaluating control of boll weevil (Anthonomus grandis) the test unit consisted of 96-well-microtiter plates containing an insect diet and 5-10 A. grandis eggs.
# The compounds were formulated using a solution containing 75% (v/v) water and 25% (v/v) DMSO. Different concentrations of formulated compounds were sprayed onto the insect diet at […], using a custom-built micro atomizer, at two replications.
# After application, microtiter plates were incubated at about 25±1C and about 75±5% relative humidity for 5 days. Egg and larval mortality were then visually assessed.
# [4] = tested on: tobacco budworm (Heliothis virescens); assay: Example B.5: Action on tobacco budworm (Heliothis virescens), egg and larval mortality on insect diet; settings: 120 h, egg and larval mortality after 5 days, read-out: mortality in comparison with untreated controls
# Method: For evaluating control of tobacco budworm (Heliothis virescens) the test unit consisted of 96-well-microtiter plates containing an insect diet and 15-25 H. virescens eggs.
# The compounds were formulated using a solution containing 75% v/v water and 25% v/v DMSO. Different concentrations of formulated compounds were sprayed onto the insect diet at 10 μl, using a custom-built micro atomizer, at two replications.
# After application, microtiter plates were incubated at about 28±1C and about 80±5% relative humidity for 5 days. Egg and larval mortality were then visually assessed.
# [5] = tested on: Diamond back moth (Plutella xylostella); assay: Example B.6: Action on diamond back moth (Plutella xylostella), cabbage leaf dip, 3rd instar larvae; settings: foliar, 72 hours after treatment, read-out: mortality in comparison with untreated controls
# Method: The active compound is dissolved at the desired concentration in a mixture of 1:1 (v/v) distilled water: acetone. Surfactant (Kinetic® HV) is added at a rate of 0.01% (v/v). The test solution is prepared at the day of use.
# Leaves of cabbage were dipped in test solution and air-dried. Treated leaves were placed in petri dishes lined with moist filter paper and inoculated with ten 3rd instar larvae. Mortality was recorded 72 hours after treatment. Feeding damages were also recorded using a scale of 0-100%.
# [6] = tested on: yellow fever mosquito (Aedes aegypti); assay: whole plant or invertebrate; settings: 48 h, larval mortality after 2 days, read-out: mortality in comparison with untreated controls
# Method: For evaluating control of yellow fever mosquito (Aedes aegypti) the test unit consisted of 96-well-microtiter plates containing 200 μl of tap water per well and 5-15 freshly hatched A. aegypti larvae.
# The active compounds or mixtures were formulated using a solution containing 75% (v/v) water and 25% (v/v) DMSO. Different concentrations of formulated compounds or mixtures were sprayed onto the insect diet at 2.5 μl, using a custom-built micro atomizer, at two replications.
# For experimental mixtures in these tests identical volumes of both mixing partners at the desired concentrations respectively, were mixed together.
# After application, microtiter plates were incubated at 28 #1° C., 80 #5% RH for 2 days. Larval mortality was then visually assessed.
# [7] = tested on: Orchid thrips (Dichromothrips corbetti); assay: Example B.2: Action on orchid thrips (Dichromothrips corbetti), floral-immersion technique; settings: 72 hours after treatment, read-out: mortality in comparison with untreated controls
# Method: Dichromothrips corbetti adults used for bioassay were obtained from a colony maintained continuously under laboratory conditions. For testing purposes, the test compound is diluted in a 1:1 mixture of acetone:water (vol:vol), plus Kinetic® HV at a rate of 0.01% v/v.
# Thrips potency of each compound was evaluated by using a floral-immersion technique. All petals of individual, intact orchid flowers were dipped into treatment solution and allowed to dryin Petri dishes. Treated petals were placed into individual re-sealable plastic along with about 20 adult thrips. All test arenas were held under continuous light and a temperature of about 28° C. for duration of the assay. After 3 days, the numbers of live thrips were counted on each petal. The percent mortality was recorded 72 hours after treatment.
Structure (SMILES),egg and larval mortality ([1]; 25 ppm),mortality at 800 ppm [1] [%],mortality at 300 ppm [2] [%],mortality at 800 ppm [3] [%],mortality at 800 ppm [4] [%],mortality at 300 ppm [5] [%],mortality at 800 ppm [6] [%],mortality at 300 ppm [7] [%],egg and larval mortality ([1]; 100 ppm)
CC(C)c1ccccc1N1C(=O)CS/C1=N\C(=O)Nc1ccc(-c2nc(NC(=O)c3ccc(OC(F)(F)F)cc3)n(C)n2)cc1 [Example C-119],75,≥ 75,≥ 75,≥ 75,,,,,
"Cc1ccc(C(C)C)c(N2C(=O)CS/C2=N\C(=O)Nc2ccc(-c3nn(C)c(N(C)C(=O)c4ccc(C(F)(F)F)cc4)c3C)cc2)c1 [Example C-4, N-[5-[4-[[(Z)-[3-(2-isopropyl-5-methyl-phenyl)-4-oxo-thiazolidin-2-ylidene]carbamoyl]amino]phenyl]-2,4-dimethyl-pyrazol-3-yl]-N-methyl-4-(trifluoromethyl)benzamide]",,,≥ 75,≥ 75,≥ 75,≥ 75,≥ 50,≥ 75,
"Cc1ccc(C(C)C)c(N2C(=O)CS/C2=N\C(=O)Nc2ccc(-c3nn(C)c(NC(=O)c4ccc(OC(F)(F)F)cc4)c3C)cc2Cl)c1 [Example C-8, N-[5-[3-chloro-4-[[(Z)-[3-(2-isopropyl-5-methyl-phenyl)-4-oxo-thiazolidin-2-ylidene]carbamoyl]amino]phenyl]-2,4-dimethyl-pyrazol-3-yl]-4-(trifluoromethoxy)benzamide]",,,≥ 75,≥ 75,≥ 75,≥ 75,≥ 50,≥ 75,
"Cc1ccc(C(C)C)c(N2C(=O)CS/C2=N\C(=O)N(C)c2ccc(-c3nn(C)c(NC(=O)c4ccc(OC(F)(F)F)cc4)c3C)cc2)c1 [Example C-112, N-[5-[4-[[(Z)-[3-(2-isopropyl-5-methyl-phenyl)-4-oxo-thiazolidin-2-ylidene]carbamoyl]-methyl-amino]phenyl]-2,4-dimethyl-pyrazol-3-yl]-4-(trifluoromethoxy)benzamide]",,≥ 75,,≥ 75,≥ 75,,≥ 50,,
"Cc1ccc(C(C)C)c(N2C(=O)CS/C2=N\C(=O)Nc2ccc(-c3nn(C)c(NC(=O)c4ccc(C(F)(F)F)cc4)c3C)cc2)c1 [Example C-1, N-[5-[4-[[(Z)-[3-(2-isopropyl-5-methyl-phenyl)-4-oxo-thiazolidin-2-ylidene]carbamoyl]amino]phenyl]-2,4-dimethyl-pyrazol-3-yl]-4-(trifluoromethyl)benzamide]",,,≥ 75,≥ 75,≥ 75,≥ 75,≥ 50,≥ 75,
"Cc1ccc(C(C)C)c(NC(=S)NC(=O)Nc2ccc(-c3nn(C)c(NC(=O)c4ccc(C(F)(F)F)cc4)c3C)cc2)c1 [Example C-3, N-[5-[4-[(2-isopropyl-5-methyl-phenyl)carbamothioylcarbamoylamino]phenyl]-2,4-dimethyl-pyrazol-3-yl]-4-(trifluoromethyl)benzamide]",,,≥ 75,≥ 75,≥ 75,≥ 75,≥ 50,≥ 75,
"CC(C)c1ccccc1N1C(=O)CS/C1=N\C(=O)Nc1ccc(-c2nc(Nc3ccc(OC(F)(F)F)cc3)n(C)n2)cc1 [EP3974414 I-001, reference compound]",0,,,,,,,,
CC(C)c1ccccc1N1C(=O)CS/C1=N\C(=O)Nc1ccc(-c2nc(NC(=O)c3cccc(OC(F)(F)F)c3)n(C)n2)cc1 [Example C-126],75,≥ 75,≥ 75,≥ 75,≥ 75,,≥ 50,,100
"Cc1ccc(C(C)C)c(N2C(=O)CS/C2=N\C(=O)Nc2ccc(-c3nc(NC(=O)c4ccc(OC(F)(F)F)cc4)n(C)n3)cc2)c1 [Example C-5, N-[5-[4-[[(Z)-[3-(2-isopropyl-5-methyl-phenyl)-4-oxo-thiazolidin-2-ylidene]carbamoyl]amino]phenyl]-2-methyl-1,2,4-triazol-3-yl]-4-(trifluoromethoxy)benzamide]",,,≥ 75,≥ 75,≥ 75,≥ 75,,≥ 75,
"CC(C)c1ccccc1N1C(=O)CS/C1=N\C(=O)Nc1ccc(-c2nc(Nc3cccc(OC(F)(F)F)c3)n(C)n2)cc1 [EP3974414 I-006, reference compound]",38,,,,,,,,0
"Cc1ccc(C(C)C)c(N2C(=O)CS/C2=N\C(=O)Nc2ccc(-c3nn(C)c(NC(=O)c4ccc(OC(F)(F)F)cc4)c3C#N)cc2)c1 [Example C-7, N-[4-cyano-5-[4-[[(Z)-[3-(2-isopropyl-5-methyl-phenyl)-4-oxo-thiazolidin-2-ylidene]carbamoyl]amino]phenyl]-2-methyl-pyrazol-3-yl]-4-(trifluoromethoxy)benzamide]",,,≥ 75,≥ 75,≥ 75,≥ 75,≥ 50,≥ 75,
"CC(=O)OCS/C(=N\C(=O)Nc1ccc(-c2nn(C)c(NC(=O)c3ccc(C(F)(F)F)cc3)c2C)cc1)Nc1cc(C)ccc1C(C)C [Example C-2, [(Z)-N′-[[4-[1,4-dimethyl-5-[[4-(trifluoromethyl)benzoyl]amino]pyrazol-3-yl]phenyl]carbamoyl]-N-(2-isopropyl-5-methyl-phenyl)carbamimidoyl]sulfanylmethyl acetate]",,,≥ 75,≥ 75,≥ 75,≥ 75,≥ 50,≥ 75,
